This is an account of results in patent US7482024B2, “Compositions comprising an active agent” (Nektar Therapeutics, priority 1999, dated 2009).

Several values for one entry are separate records, joined by “and”; a condition that tells them apart may be missing. Equal values may be shown once.

A short description of this series: Surface tension measurement, Kruss Processor Tensiometer-K12, Wilhelmy-method (plate method). The following applies: for Surface tension, 25° C. Extrapolated Values at 2 mg/ml / Surface tension, 45° C. Extrapolated Values at 2 mg/ml: extrapolated to 2 mg/ml. The series is classed as physicochemical. Here is the method: A “surface active” material is one having surface activity (measured, e.g., by surface tensiometry), as characterized by its ability to reduce the surface tension of the liquid in which it is dissolved. […] A peptide that is more surface active than another peptide is one which decreases the surface tension of water to a greater extent, when present in the liquid at the same concentration and measured under the same set of experimental conditions. The surface tension of several representative dipeptides, tripeptides, and proteins was measured at 25° C. and 45° C. to provide an indication of their relative surface activities. Surface tension measurements were carried out using a Kruss Processor Tensiometer-K12 with the Wilhelmy-method (Plate method). Solutions were prepared by dissolving either 0.05%, 0.2%, or 0.6% peptide/protein (by weight) along with an appropriate amount of raffinose by weight to provide final solutions having a 1.0% by weight solids content. Surface tension measurements at 25° C. and 45° C. were then obtained for the test solutions at three different time points (49 seconds, 100 seconds and 194 seconds).

The mark [1] stands for this setting: 0.2% (wt/vol) plus raffinose to 1% total solids, 25° C., 49 s.
The mark [2] stands for this setting: 0.2% (wt/vol) plus raffinose to 1% total solids, 25° C., 100 s.
The mark [3] stands for this setting: 0.2% (wt/vol) plus raffinose to 1% total solids, 25° C., 194 s.

Regarding di-isoleucine [reference compound], the “Surface activity (ability to lower the surface tension of water), in words” value was “not particularly effective at lowering the surface tension of water”. Further, under “Table 2: 0.20% (wt/vol) plus 0.80% raffinose, 25° C., 49 s”, the “Surface tension (ST)” value is 67.7 mN/m and 67.6 mN/m and 68 mN/m. For the same substance, where the note is “Table 2: 0.20% (wt/vol) plus 0.80% raffinose, 25° C., 100 s”, the “Surface tension (ST)” value was 71.6 mN/m and 67.2 mN/m and 67.8 mN/m. For the same substance, for the setting “Table 2: 0.20% (wt/vol) plus 0.80% raffinose, 25° C., 194 s”, the “Surface tension (ST)” value is 71.6 mN/m and 67 mN/m and 67.6 mN/m.
In the case of Leu-Val [reference compound], the “Surface tension, Actual MEAN” value came to 69.2 mN/m (0.98 mg/ml, 25° C.); 64.2 mN/m (0.98 mg/ml, 45° C.); 65 mN/m (2.93 mg/ml, 25° C.); 60.4 mN/m (2.93 mg/ml, 45° C.); 59.1 mN/m (8.80 mg/ml, 25° C.); 55.7 mN/m (8.80 mg/ml, 45° C.). For the same substance, the “Surface tension, 25° C. Extrapolated Values at 2 mg/ml” value (25° C.) is listed as 67.2 mN/m. Also, the “Surface tension, 45° C. Extrapolated Values at 2 mg/ml” value (45° C.) is recorded as 62.3 mN/m.
On to Leu-Tyr [reference compound], for which the “Surface tension, Actual MEAN” value (0.71 mg/ml, 25° C.) is 71.5 mN/m; the “Surface tension, Actual MEAN” value (0.71 mg/ml, 45° C.) is recorded as 68.0 mN/m; the “Surface tension, Actual MEAN” value (2.13 mg/ml, 25° C.) is recorded as 68.0 mN/m; the “Surface tension, Actual MEAN” value (2.13 mg/ml, 45° C.) stood at 65.6 mN/m; the “Surface tension, Actual MEAN” value (6.40 mg/ml, 25° C.) came out at 62.2 mN/m; the “Surface tension, Actual MEAN” value (6.40 mg/ml, 45° C.) was determined as 59.5 mN/m. Moreover, the “Surface tension, 25° C. Extrapolated Values at 2 mg/ml” value (25° C.) was 68.3 mN/m. In addition, the “Surface tension, 45° C. Extrapolated Values at 2 mg/ml” value (45° C.) was 67.3 mN/m.
As to leu-leu-ala, the “Surface tension, Actual MEAN” value is 60.7 mN/m (0.76 mg/ml, 25° C.); 58.3 mN/m (0.76 mg/ml, 45° C.); 43.5 mN/m (2.27 mg/ml, 25° C.); 48.2 mN/m (2.27 mg/ml, 45° C.); 39.9 mN/m (6.80 mg/ml, 25° C.); 48.4 mN/m (6.80 mg/ml, 45° C.). Moreover, the “Surface tension, 25° C. Extrapolated Values at 2 mg/ml” value (25° C.) was 46.6 mN/m. Under “45° C.”, the “Surface tension, 45° C. Extrapolated Values at 2 mg/ml” value was 49.8 mN/m.
For the substance Ala-Val-Leu [reference compound], the “Surface tension, Actual MEAN” value is, setting by setting: (0.97 mg/ml, 25° C.) 67.5 mN/m; (0.97 mg/ml, 45° C.) 60.3 mN/m; (2.90 mg/ml, 25° C.) 62.8 mN/m; (2.90 mg/ml, 45° C.) 57.7 mN/m; (8.70 mg/ml, 25° C.) 55.7 mN/m; (8.70 mg/ml, 45° C.) 53.8 mN/m. Moreover, the “Surface tension, 25° C. Extrapolated Values at 2 mg/ml” value (25° C.) is recorded as 65 mN/m. The “Surface tension, 45° C. Extrapolated Values at 2 mg/ml” value (45° C.) is on record as 58.9 mN/m.
As for di-alanine [reference compound], the “Surface tension (ST)” value under setting [1] is 72 mN/m and 72.1 mN/m; the “Surface tension (ST)” value under setting [2] is 72 mN/m and 71.9 mN/m and 72.1 mN/m; the “Surface tension (ST)” value under setting [3] was 71.9 mN/m and 72.1 mN/m.
Consider leu-tyr-leu, for which the “Surface activity (ability to lower the surface tension of water), in words” value is given as “the most surface active of the trimers”. Further, the “Surface tension, Actual MEAN” value (0.32 mg/ml, 25° C.) is on record as 58.4 mN/m. In addition, the “Surface tension, Actual MEAN” value (0.32 mg/ml, 45° C.) is reported as 55.4 mN/m. In addition, the “Surface tension, Actual MEAN” value (0.97 mg/ml, 25° C.) amounted to 51.6 mN/m. Where the note is “0.97 mg/ml, 45° C.”, the “Surface tension, Actual MEAN” value was 49.1 mN/m. Moreover, the “Surface tension, Actual MEAN” value (2.90 mg/ml, 25° C.) worked out at 44.7 mN/m. For the same substance, for the setting “2.90 mg/ml, 45° C.”, the “Surface tension, Actual MEAN” value is 40.8 mN/m. Besides, under “25° C.”, the “Surface tension, 25° C. Extrapolated Values at 2 mg/ml” value is listed as 47.9 mN/m. Besides, where the note is “45° C.”, the “Surface tension, 45° C. Extrapolated Values at 2 mg/ml” value is on record as 44.7 mN/m.
As for “salmon calcitonin [sal. Calcitonin, reference compound]”, the “Surface activity (ability to lower the surface tension of water), in words” value is given as “highly surface active”. In addition, the “Surface tension (ST)” value under setting [1] is reported as 48.7 mN/m. Further, for the setting “0.2% (wt/vol) plus raffinose to 1% total solids, 25° C., 49 s, listed as sal. calcitonin”, the “Surface tension (ST)” value came to 48.4 mN/m. Besides, the “Surface tension (ST)” value under setting [2] was determined as 48.6 mN/m. The “Surface tension (ST)” value (0.2% (wt/vol) plus raffinose to 1% total solids, 25° C., 100 s, listed as sal. calcitonin) was determined as 48.4 mN/m. Also, the “Surface tension (ST)” value under setting [3] is reported as 48.5 mN/m. The “Surface tension (ST)” value (0.2% (wt/vol) plus raffinose to 1% total solids, 25° C., 194 s, listed as sal. calcitonin) was 48.4 mN/m.
